Series [1] can be described thus: Phase 1 single and multiple ascending dose trial of inhaled CA28. The series is classed as in vivo, human. Particulars: for adverse event: one subject. On the procedure:
In the single ascending dose part of the trial, 16 subjects were enrolled in four cohorts of four subjects each.
Four subjects were enrolled in the first cohort of the multiple ascending dose part of the trial. These subjects were to receive 14 consecutive days of treatment with a 60 mg/day dose of the drug. […] The trial was paused and subsequently resumed, with subjects receiving 30 mg/day. […] The trial was then terminated.

Series [2] concerns RBCs from a patient with PNH. Put plainly: Modified Ham's test with flow cytometry for CD59 and C3d. The series is classed as cell-based, human. The protocol:
A modified Ham's test was performed to assess the ability of compstatin analogs to protect PNH RBCs from complement-mediated lysis. […] Exposure to heat inactivated human serum was used as a control representing no significant complement-mediated lysis as complement is inactivated by heat. Exposure to acidified human serum and magnesium (Mg^2+) in the absence of complement inhibitors (pane labeled Mg^2+) was used as a control representing maximum lysis.
Following incubation, cells were stained with antibodies to CD59 and C3d. CD59 level permitted the classification of the PNH RBCs as Type I, Type II, or Type III. Staining for C3d, a product of C3 activation and cleavage was used as a marker of C3 and C3 activation product deposition (loading). Flow cytometric analysis was performed to assess CD59 and C3d on RBC surfaces and to quantify the percentages of Type I, Type II, and Type III cells present in various samples.
A general note: A flow cytometer gives signals particle by particle.

Series [3] concerns inflammatory cytokines in the lungs. Nature of the series: Ascaris suum challenge model. The series is classed as in vivo, cynomolgus monkeys. Conditions: nebulized 20 mg/day or 15 mg/kg/d for 14 days; during treatment and 28 days after cessation.
Series [4] deals with T1, complement component C3 (human) (human, UniProt P01024 23-1663). Put plainly: cell-based or functional assay.
Series [5] addresses T1, complement component C3 (human). Put plainly: cell-based or functional assay. The source holds these as a separate data set.
Series [6] shares this target. Nature of the series: cell-based or functional assay. This is another data set of the same source.
For series [7] the target is unchanged. Put plainly: cell-based or functional assay. This is another data set of the same source.
The target is the same in series [8]. Put plainly: cell-based or functional assay. The source holds these as a separate data set.

Data on nine molecules can be found in US11040107B2, “Dosing regimens and related compositions and methods” (Apellis Pharmaceuticals, Inc., priority 2017, dated 2021).

With `CC[C@H](C)[C@H](NC(C)=O)C(=O)N[C@H]1CSSC[C@@H](C(=O)N[C@H](C(N)=O)[C@@H](C)O)NC(=O)[C@H](CCCNC(=N)N)NC(=O)[C@H](Cc2cnc[nH]2)NC(=O)[C@H](C)NC(=O)CNC(=O)[C@H](Cc2c[nH]c3ccccc23)NC(=O)[C@H](CC(=O)O)NC(=O)[C@H](CCC(N)=O)NC(=O)[C@H](Cc2cn(C)c3ccccc23)NC(=O)[C@H](C(C)C)NC1=O` [CA28], the adverse event result was “signs and symptoms consistent with a potential bacterial infection” in series [1] (30 mg/day inhaled, after 10 days); “signs and symptoms consistent with a potential bacterial infection” in series [1] (60 mg/day inhaled, after nine days). Also, the safety and tolerability entry in series [1] (single inhaled dose 20, 60, 150 or 350 mg) was “well tolerated”. The “protection from complement-mediated lysis” value in series [2] (100 ug/ml or more) is “complete protection from complement-mediated lysis”. For the same molecule, the “% C3 (Type I)” value in series [2] (1 micrograms/ml) came out at 1.7%; in series [2] (100 micrograms/ml) it was 0.08%; in series [2] (500 micrograms/ml), 0.14%. In addition, the “% C3 (Type III)” value in series [2] (1 micrograms/ml) is 1.2%; in series [2] (4 micrograms/ml), 0.83%; in series [2] (8 micrograms/ml), 0.7%; in series [2] (15 micrograms/ml), 0.98%; in series [2] (25 micrograms/ml) it was 0.75%; in series [2] (100 micrograms/ml) it was 0.1%. Moreover, in series [2] (500 micrograms/ml), the “% C3 (Type III)” value worked out at 0.09%. Moreover, in series [2] (8 micrograms/ml), the “Type II %” value is listed as 66%. The “Type I %” value in series [2] (15 micrograms/ml) is 15%; in series [2] (25 micrograms/ml), 14.96%. The “% C3 (Type II)” value in series [2] (25 micrograms/ml) worked out at 9.3%; in series [2] (100 micrograms/ml), 0.92%; in series [2] (500 micrograms/ml) it was 0.63%. In series [2] (100 micrograms/ml), the “Type III %” value amounted to 37.96%. Besides, the “C3 loading on PNH red cells” value in series [2] (100 micrograms/ml compound or higher) was “virtually no C3 loading”. Moreover, the “levels of inflammatory cytokines in broncheoalveolar lavage fluid after allergen challenge” value in series [3] is “had a pharmacological effect”.

B1: CA28-AEEAc-Lys-(PEG40k) (peptide)
peptide: ICVWQDWGAHRCTK
modifications: N-terminal acetyl; 1-methyl-tryptophan at position 4; disulfide bond Cys2-Cys12; AEEAc spacer between Thr13 and Lys; linear monomethoxy 40 kD PEG (NOF SUNBRIGHT ME-400GS, glutaryl linkage) on the Lys side chain; C-terminal amide
Consider B1, for which the “IC50, classical complement inhibition assay (C3b deposition ELISA, human plasma)” value in series [4] is 1290 nM. For the same molecule, the “IC50 (read off the curve): % inhibition of classical pathway complement activation (C3b deposition ELISA, human plasma)” value in series [5] is around 700 nM.

B2: CA28-AEEAc-Lys-(PEG30k) (peptide)
peptide: ICVWQDWGAHRCTK
modifications: not fully specified; N-terminal acetyl; 1-methyl-tryptophan at position 4; disulfide bond Cys2-Cys12; AEEAc (8-amino-3,6-dioxaoctanoyl) spacer between Thr13 and Lys; linear monofunctional 30 kD PEG (NOF SUNBRIGHT ME-300GS) on the Lys side chain; C-terminal amide
On to B2, for which, in series [4], the “IC50, classical complement inhibition assay (C3b deposition ELISA, human plasma)” value amounted to 1260 nM.

B3: CA28-2TS-BF (peptide)
peptide: ICVWQDWGAHRCTK
modifications: not fully specified; N-terminal acetyl; 1-methyl-tryptophan at position 4; disulfide bond Cys2-Cys12; AEEAc spacer between Thr13 and Lys; Lys side chain coupled by a carbamate to one end of a bifunctional linear 40 kD PEG of the TS type; C-terminal amide
Consider B3, for which the “IC50 (read off the curve): % inhibition of alternative pathway complement activation (LPS-coated plate, C3b deposition ELISA, human plasma) [B]” value in series [6] was around 400 nM.

B4: CA28-2GS-BF (peptide)
peptide: ICVWQDWGAHRCTK
modifications: not fully specified; N-terminal acetyl; 1-methyl-tryptophan at position 4; disulfide bond Cys2-Cys12; AEEAc spacer between Thr13 and Lys; Lys side chain coupled to one end of a bifunctional linear 40 kD PEG of the GS type (glutaryl, amide plus ester linkage); C-terminal amide
Turning to B4, in series [7], the “Q1 (Type III cells with C3d deposition) % Parent, modified Ham's test, at 50 ug/ml” value stood at 0.01%; the “Q2 (Type I and II cells with C3d deposition) % Parent, modified Ham's test, at 50 ug/ml” value is 0.01%; the “Q3 (Type III cells without significant C3d deposition) % Parent, modified Ham's test, at 50 ug/ml” value came to 61.5%; the “Q4 (Type I and II cells without significant C3d deposition) % Parent, modified Ham's test, at 50 ug/ml” value came out at 38.5%.

B5: CA28-AEEAc-Lys(mPEG40K-carbonyl) (peptide)
peptide: ICVWQDWGAHRCTK
modifications: N-terminal acetyl; 1-methyl-tryptophan at position 4; disulfide bond Cys2-Cys12; AEEAc spacer between Thr13 and Lys; linear monomethoxy 40 kD PEG (NOF SUNBRIGHT ME-400TS, carbonyl linkage) on the Lys side chain; C-terminal amide
With B5, the “IC50 (read off the curve): % inhibition of classical pathway complement activation (C3b deposition ELISA, human plasma)” value in series [5] is around 700 nM.

B6: CA28-AEEAc-Lys(mPEG40K-hexanoyl) (peptide)
peptide: ICVWQDWGAHRCTK
modifications: N-terminal acetyl; 1-methyl-tryptophan at position 4; disulfide bond Cys2-Cys12; AEEAc spacer between Thr13 and Lys; linear monomethoxy 40 kD PEG (NOF SUNBRIGHT ME-400HS, hexanoyl linkage) on the Lys side chain; C-terminal amide
B6: in series [5], the “IC50 (read off the curve): % inhibition of classical pathway complement activation (C3b deposition ELISA, human plasma)” value was around 700 nM.

B7: (CA28-AEEAc)8-PEG40k (peptide)
peptide: ICVWQDWGAHRCTK
modifications: N-terminal acetyl; 1-methyl-tryptophan at position 4; disulfide bond Cys2-Cys12; AEEAc spacer between Thr13 and Lys; Lys side chain coupled to one arm of an eight-arm 40 kD PEG (NOF SUNBRIGHT HGEO-400GS); C-terminal amide
For the molecule B7, the “IC50, classical complement inhibition assay, as a function of CA28 moiety concentration” value in series [4] stood at 1930 nM. For the same molecule, the “IC50 on a molar basis of the compound, classical complement inhibition assay” value in series [8] is around 260 nM.

B8: CA28-AEEAc-Lys(mPEG40K-succinyl) (peptide)
peptide: ICVWQDWGAHRCTK
modifications: N-terminal acetyl; 1-methyl-tryptophan at position 4; disulfide bond Cys2-Cys12; AEEAc spacer between Thr13 and Lys; linear monomethoxy 40 kD PEG (NOF SUNBRIGHT ME-400CS, succinyl linkage) on the Lys side chain; C-terminal amide
On to B8, for which the “IC50 (read off the curve): % inhibition of classical pathway complement activation (C3b deposition ELISA, human plasma)” value in series [5] was around 700 nM.
